Marks after values point to notes of the source that are not given here.
Experiment: Solubility of selected diols in 20°C water
Assay type: physicochemical
Conditions: determined via laboratory measurements (values marked *)
Description: A particularly preferred type of solvent for these hard surface cleaner compositions comprises diols having from 6 to 16 carbon atoms in their molecular structure. Preferred diol solvents have a solubility in water of from about 0.1 to about 20 g/100 g of water at 20°C.
In the case of `CCCCCCC(O)CO` (stereo not shown) [1,2-Octanediol], the Solubility is reported as 1.0* g/100g H2O. With `CC(O)(CO)c1ccccc1` (stereo not shown) [2-Phenyl-1,2-propanediol] the Solubility was 12.0* g/100g H2O. For `OCC(O)c1ccccc1` (stereo not shown) [Phenyl-1,2-ethanediol], the Solubility was 12.0* g/100g H2O. For `OCC1CCC(CO)CC1` (stereo not shown) [1,4-Cyclohexanedimethanol], the Solubility was 20.0* g/100g H2O.

Experiment: not given
Conditions: in 20°C water; values from published literature; cited from earlier work
For `CCCC(O)C(CC)CO` (stereo not shown) [2-Ethyl-1,3-hexanediol], the Solubility is listed as 4.2 g/100g H2O. In the case of `CC(C)(O)CCC(C)(C)O` [2,5-Dimethyl-2,5-hexanediol], the Solubility is given as 14.3 g/100g H2O. For `CC(C)C(O)C(C)(C)CO` (stereo not shown) [2,2,4-Trimethyl-1,3-pentanediol], the Solubility is given as 1.9 g/100g H2O.

Reference: patent EP0513240B1, “LIQUID HARD SURFACE DETERGENT COMPOSITIONS CONTAINING ZWITTERIONIC DETERGENT SURFACTANT AND MONOETHANOLAMINE AND/OR BETA-AMINOALKANOL” (THE PROCTER & GAMBLE COMPANY, priority 1990, dated 1991)
